The source of these data is publication PMC2679894 (Journal of molecular biology, 2009).

This assay addresses KsgA (Thermus thermophilus, UniProt Q5SM60). Put plainly: X-ray crystal structure. Particulars: cofactor-binding site; co-crystallised with 4 mM adenosine and 4 mM AdoMet, 50 °C for 10 min; crystal form KsgA2.

KsgA, sequence (Q5SM60 whole entry): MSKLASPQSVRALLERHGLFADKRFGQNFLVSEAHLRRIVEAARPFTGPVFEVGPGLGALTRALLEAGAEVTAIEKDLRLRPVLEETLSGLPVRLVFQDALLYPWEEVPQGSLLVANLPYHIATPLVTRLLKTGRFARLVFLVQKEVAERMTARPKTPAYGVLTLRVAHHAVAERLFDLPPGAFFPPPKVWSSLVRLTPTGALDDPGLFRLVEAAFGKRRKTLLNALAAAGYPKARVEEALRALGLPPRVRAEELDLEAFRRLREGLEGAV

For `Nc1ncnc2c1ncn2[C@@H]1O[C@H](CO)[C@@H](O)[C@H]1O` [adenosine], the X-ray crystal structure entry was “these crystals were found to have adenosine in the cofactor-binding site”.
